Our source for the inhibition and IC50 values is ChEMBL document CHEMBL1127208, “Centaureidin, a cytotoxic flavone from Polymnia fruticosa, inhibits tubulin polymerization” (Bioorg Med Chem Lett, 1993).

Experiment [1] has as its target Tubulin alpha chain (Sus scrofa) (UniProt P02550). Nature of the experiment: Tested for the inhibition using the binding of 5 uM [3H]colchicine to purified tubulin at 37 degree Centigrade.
The nature of experiment [2]: Tested for the cytotoxicity concentration in CA46 burkitt lymphoma cells. The following applies: Homo sapiens. The class given is functional, cell-based.
A further experiment concerns the target Tubulin alpha chain (Sus scrofa, UniProt P02550). Nature of the experiment: Tested for 50 % inhibition of tubulin polymerization by turbidimetric assay.

Tubulin alpha chain (Sus scrofa), sequence (P02550 whole entry, looked up): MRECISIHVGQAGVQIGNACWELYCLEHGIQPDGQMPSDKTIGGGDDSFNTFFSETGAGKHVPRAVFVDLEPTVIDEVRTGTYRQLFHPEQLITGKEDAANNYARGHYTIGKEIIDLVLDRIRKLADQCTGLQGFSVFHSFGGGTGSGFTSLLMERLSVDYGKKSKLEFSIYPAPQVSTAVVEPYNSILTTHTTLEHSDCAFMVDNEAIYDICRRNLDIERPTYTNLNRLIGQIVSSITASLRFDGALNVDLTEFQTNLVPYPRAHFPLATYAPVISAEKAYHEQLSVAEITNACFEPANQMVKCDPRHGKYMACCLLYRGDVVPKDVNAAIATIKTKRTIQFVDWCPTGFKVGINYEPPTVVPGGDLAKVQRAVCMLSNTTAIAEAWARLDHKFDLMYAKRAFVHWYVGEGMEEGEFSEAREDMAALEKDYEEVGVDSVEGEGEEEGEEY
Tubulin alpha chain, sequence (P02550 whole entry, looked up): as above

By inhibition is commonly meant how much of the control response was suppressed. In turn, `COc1cc([C@@H]2c3cc4c(cc3[C@H](O)[C@H]3COC(=O)[C@H]23)OCO4)cc(OC)c1OC` registered an inhibition in experiment [1] of 84%. A word on the IC50: it is the concentration at which inhibition is half-maximal. For the compound `COc1ccc(-c2oc3cc(O)c(OC)c(O)c3c(=O)c2OC)cc1O` [CENTAUREIDIN], the values for the 50% inhibitory concentration (IC50) (in experiment [2]; against Tubulin alpha chain) were 0.2 µM and 3 µM, respectively.
